Measurements reported in patent US20140329776A1, “Mitochondria-Targeted Antioxidants for Treatment of Age-Related Brain Disorders” (MITOTECH S.A., priority 2011, published 2014).

Legend:
[1] = system: hippocampal slice neurons; assay: long-term potentiation (LTP) of hippocampal slices treated with Aβ after in vivo treatment; design: species or system rat; conditions: for neuroprotective activity based on LTP signal, model of Alzheimer disease: administered in vivo to rats prior to extraction of hippocampus, beta-amyloid treatment
Procedure: FIG. 3B is a graphic representation showing the LTP caused by in vitro addition of Aβ, where the decay of LTP of hippocampal slice neurons characterized by a decrease of pop-spike amplitude (%) in a hippocampal slice treated with Aβ.
SkQR1 Aβ was added 15 min before the LTP induction with high-frequency electric stimulation (arrow). The decay of LTP (i.e. decrease of pop-spike amplitude) in a hippocampal slice treated with Aβ can be prevented by SkQR1 treatment.
FIG. 16 is a bar graph comparing the neuroprotective effects of preferred SkQ mitochondria-targeted antioxidants of the invention when administered in vivo in a model of Alzheimer disease.
As a model of cell memory, an electric response of a hippocampal slice (long-term potentiation, LTP) was used (Malenka, et al., Science 285:1870-1874 (1999)). A direct experiment was performed showing the prevention of Aβ toxicity in hippocampus by in vivo treatment of rats with 1 μmol SkQR1 per kg of body weight. The compound was injected intraperitoneally into the animal 24 hours before hippocampal slices were obtained to measure LTP. Some slices were pretreated with Aβ for 15 minutes. As is seen in FIG. 3B, Aβ impaired LTP relative to untreated control.
FIG. 16 provides a comparison of the neuroprotective effects of SkQ1, SkQR1 and C12TPP based on the LTP signal in neurons of hippocampal slices. Ab stands for beta-amyloid treatment. […] All SkQs and C12TPP were administered in vivo to rats prior the extraction of hippocampus.

[2] = system: AD patients; conditions: human, in vivo; cited from earlier work
[3] = system: mROS; conditions: in vivo; cited from earlier work
[4] = system: rats after transient middle cerebral artery occlusion; assay: transient middle cerebral artery occlusion, brain infarct volume (TTC staining); format: in vivo, rat; conditions: single intraperitoneal injection 0.5-2 μmol/kg body weight; 24 h before 60 min occlusion; studied 24 h after occlusion
Procedure: Several effects of SkQs were observed when brain functions were studied. Where indicated, 1 μmol SkQR1 per kg of body weight was injected intraperitoneally 24 h before the 60 min occlusion of the artery. The ischemia effect was studied 24 h after the occlusion (Plotnikov, et al., Biochemistry (Mosc) 75:145-150 (2010) here and below, p<0.05 for SkQ effect).

[5] = system: rats after transient middle cerebral artery occlusion; assay: limb-placing test after transient middle cerebral artery occlusion; format: in vivo, rat; conditions: after injection of SkQR1; first day after induction of ischemia
Procedure: Behavioral tests were performed 1 day before the induction of ischemia and on the first day after the induction of ischemia. The limb-placing test was used to evaluate the neurological deficit estimated by a conventional 14-point scale with modifications as described in Jolkkonen, et al., Eur. J. Pharmacol., 400:211-219 (2000)). The test had 7 limb-placing tasks that assess the sensorimotor integration of forelimb and hindlimb responses to tactile and proprioceptive stimulation.

[6] = system: hippocampal slice neurons; assay: LTP of hippocampal slices, nootropic activity; conditions: administered in vivo; FIG. 15
Description: FIG. 15 is a bar graph showing the nootropic activity of preferred SkQ mitochondria-targeted antioxidants of the invention when administered to animals in vivo.

[7] = system: Wistar rats; assay: limb-placing test after focal open severe brain trauma; format: in vivo, rat; conditions: 100 nmol/kg i.p. 1 h after trauma then daily for four days, 12-score scale, mean±SEM
Procedure: (§1) In this study, we, the inventors, employed our modification of the earlier used model of focal open severe brain trauma in rats. The study was performed on male Wistar rats with body weight of 180-250 g. Before the surgery, the animals were anesthetized by an intraperitoneal injection of 3% chloral hydrate (330 mg/kg). To create the trauma, the left frontal part of the skull was trepanized above the sensorimotor cortex zone, and a movable Teflon piston 4 mm in diameter with depth of insertion of 2.5 mm was placed into it; this piston was struck from the height of 10 cm with a 50-g load sliding along a directing rail. Localization of the sensorimotor cortex zone was determined based on data described in [14].
SkQR1 (100 nmol/kg) was injected intraperitoneally 1 h after the trauma and then daily in the same dose during the following four days.
Behavioral “limb-placing test” was performed 24 h before the operation and then on the third and seventh days after the trauma. […] The resulting score on this scale is determined as the sum of points obtained in six tests assessing the response of the forelimbs and hindlimbs to tactile and proprioceptive stimulation in the presence of obvious reflexes. […]
The results are expressed as the mean±standard error of mean. […] The statistical significance of differences in the damaged volumes was assessed using Student's t-test at the significance level of p<0.05.

[8] = system: Wistar rats; assay: damaged focal volume (morphometry) after focal open severe brain trauma; format: in vivo, rat; conditions: seventh day after trauma; 100 nmol/kg i.p. 1 h after trauma then daily for four days; mean±SEM
Procedure: as §1, with “[14]. […]” for “[14].”
A magnetic resonance imaging (MRI) study was performed as described in [15] using a BioSpec 70/30 (Bruker, Germany) with magnetic field induction of 7 T and gradient of 105 mT/m. The damaged focal volume was determined morphometrically on the 7th day after the trauma. […] The volume of the lesion was determined as a cylinder with V=ΣSn×d, where d is thickness of the section pair (200 μm); Sn is the area of the lesion in the section in mm2; Σ is the sum of volumes of ischemic damage in the sections using an Image J program (Bethesda Md., USA).
The results are expressed as the mean±standard error of mean. […]

SMILES: CCCCCCCCCCCC[P+](c1ccccc1)(c1ccccc1)c1ccccc1 [C12TPP]
- neuroprotective activity compared to SkQ ([1]; FIG. 16): lower but still sufficient
- neuroprotective activity based on LTP signal, model of Alzheimer disease ([1]; FIG. 16): neuroprotective activity

SMILES: O=C(O)CCCCC1CCSS1 (stereo not drawn) [α-lipoate]
- efficacy in treating AD patients [2]: ineffective
- safety [2]: safe

SMILES: COC1=C(OC)C(=O)C(CCCCCCCCCC[P+](c2ccccc2)(c2ccccc2)c2ccccc2)=C(C)C1=O [MitoQ]
- outcome of targeting the antioxidant to quench mROS [3]: failed

SMILES: CC/N=c1/cc2oc3cc(NCC)c(C)cc3c(-c3ccccc3C(=O)OCCCCCCCCCCC3=CC(=O)C(C)=C(C)C3=O)c-2cc1C [SkQR1, plastoquinonyl decylrhodamine 19]
- infarct volume in brain [4]: strongly decreased
- behavioral defects, limb-placing test [5]: decrease
- neuroprotective activity based on LTP signal, model of Alzheimer disease ([1]; FIG. 16): neuroprotective activity
- impairment (decay) of LTP caused by Aβ ([1]; in vivo treatment (SkQR1 1 μmol/kg i.p. 24 hours before slices), Aβ added to slices for 15 min): prevented such impairment
- LTP signal (nootropic activity) [6]: clearly stimulates LTP
- limb-placing test score, right limbs ([7]; seventh day after trauma): 7.4±0.8 points
- limb-placing test score, right limbs ([7]; third day after trauma): 6.6±0.8 points
- damaged volume [8]: 15±4 mm3

SMILES: O=C1O[C@H]([C@@H](O)CO)C(O)=C1O [ascorbate]
- safety [2]: safe

SMILES: Cc1c(C)c2c(c(C)c1O)CC[C@@](C)(CCC[C@H](C)CCC[C@H](C)CCCC(C)C)O2 [α-tocopherol]
- efficacy in treating AD patients [2]: ineffective
- safety [2]: safe
